Experimental data reported in patent US12329745B2, “Methods and compositions for treating glucocorticoid excess” (Sparrow Pharmaceuticals, Inc., priority 2022, dated 2025).
Marks after values point to notes of the source that are not given here.

Columns and labels:
liver HSD-1 = liver HSD-1 (Homo sapiens, UniProt P28845); assay: Urinary HSD-1 ratio (tetrahydrocortisol+allotetrahydrocortisol)/tetrahydrocortisone; format: in vivo; set-up: from tissue; host or cells: human liver in vivo, read through urinary steroid metabolites; settings: for mean urinary HSD-1 ratio, reduction from baseline: 0.7 mg daily
Description: The tetrahydro metabolites are rapidly and extensively excreted in urine. […] Continued adrenal synthesis provides a circulating pool of cortisol, the free fraction of which (˜5%) enters cells. That prevents the urinary HSD-1 ratio from dropping below approximately 0.1.

brain HSD-1 = biological target: T1, brain HSD-1 (Homo sapiens, UniProt P28845); assay: Brain HSD-1 occupancy by PET, competition with [11C]AS2471907; format: in vivo; settings: single dose 3 mg
T1 construct: Brain HSD-1 occupancy following a single dose of SPI-62 3 mg; from tissue; host or cells: brain in vivo
Experimental: Brain HSD-1 occupancy following a single dose of SPI-62 3 mg, assessed by competition with the HSD-1-specific PET ligand [^11C]AS2471907, was 84-90% at 3.3 to 25 hours, 56-83% at 42 to 46 hours, 36 to 45% at 139 hours, and 26% at 189 hours. The pharmacologic half-life of SPI-62 in brain is, as expected, shorter than that in liver.

[1] = biological target: T2, human HSD-1 expressed in CHO cells (Homo sapiens, UniProt P28845); assay: Inhibition of human HSD-1 expressed in CHO cells; format: cell-based
T2 construct: expressed in transfected cells; host or cells: CHO cells

C57BL/6 male mice = assay: Mitigation of corticosterone (CORT) adverse effects in mouse; format: in vivo; set-up: food consumption, group Mean: unit not given here; settings: for Fat depot weight, Gonadal, Mean / Fat depot weight, Mesenteric, Mean / Fat depot weight, Retroperitoneal, Mean / Fat depot weight, Subcutaneous, Mean / Muscle weight, Quadriceps, Mean / Muscle weight, Tibialis anterior, Mean: post-mortem Day 36; for body weight, group Mean / food consumption, group Mean: 1 mpk QD + CORT
Experimental: A control group received no CORT or SPI-62. Body weight was assessed daily and food consumption twice weekly. Whole body muscle and fat amounts were measured at Days 0, 14, and 28 using an EchoMRI-130H body composition analyzer. Blood samples for fasting glucose and insulin were obtained at Days 1 (pre-dose), 15, 29, and 35. An open field test was conducted on Day 22. A grip strength test was performed on Day 28. After sacrifice on Day 36, gonadal, subcutaneous, retroperitoneal, and mesenteric fat, quadriceps, and tibialis anterior were dissected and weighed, and skin was formalin fixed and paraffin embedded.

Sequence of liver HSD-1 (P28845 whole entry): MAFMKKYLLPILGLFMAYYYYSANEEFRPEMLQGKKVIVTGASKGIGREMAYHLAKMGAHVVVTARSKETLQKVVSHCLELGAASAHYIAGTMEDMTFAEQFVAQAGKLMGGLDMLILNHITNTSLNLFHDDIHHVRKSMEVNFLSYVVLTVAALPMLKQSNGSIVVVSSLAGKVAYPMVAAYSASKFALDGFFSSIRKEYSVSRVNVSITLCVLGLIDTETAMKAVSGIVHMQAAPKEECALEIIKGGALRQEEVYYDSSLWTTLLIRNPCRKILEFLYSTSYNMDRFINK
T1 sequence (P28845 whole entry): as above
T2 sequence (P28845 whole entry): as above

**Q.** With `Cn1c(-c2ccc(C(N)=O)cc2F)nnc1C(C)(C)Oc1c(F)cc(Cl)cc1F` [SPI-62, 4-(5-(2-(4-chloro-2,6-difluorophenoxy)propan-2-yl)-4-methyl-4H-1,2,4-triazol-3-yl)-3-fluorobenzamide] as the molecule, how does the “mean reduction of the urinary HSD-1 ratio from baseline” value (liver HSD-1; 0.2 mg daily for 14 days, last dosing day) read?
**A.** 87%

**Q.** And the “time after the last dose with incomplete return of urinary HSD-1 ratio to baseline” value (liver HSD-1; healthy adults)?
**A.** more than 2 weeks

**Q.** And the “mean urinary HSD-1 ratio, reduction from baseline” value (liver HSD-1; healthy adults, 16±2 days after cessation)?
**A.** 55%

**Q.** What about the “mean urinary HSD-1 ratio, reduction from baseline” value (liver HSD-1; healthy adults, last dosing day) of the same molecule?
**A.** 84%

**Q.** And the “mean urinary HSD-1 ratio” value (liver HSD-1; patients, 10 mg daily for 6 weeks, 2 weeks after the last dose)?
**A.** 0.33

**Q.** And the “mean urinary HSD-1 ratio” value (liver HSD-1; patients, 10 mg daily for 6 weeks, last dosing day)?
**A.** 0.13

**Q.** And the “mean urinary HSD-1 ratio” value (liver HSD-1; single 1 mg dose, urine 0 to 6 hours post-dose)?
**A.** 0.694

**Q.** And the “mean urinary HSD-1 ratio” value (liver HSD-1; single 1 mg dose, urine 6 to 12 hours post-dose)?
**A.** 0.471

**Q.** What about the “mean urinary HSD-1 ratio” value (liver HSD-1; single 1 mg dose, urine 12 to 24 hours post-dose) of the same molecule?
**A.** 0.472

**Q.** What about the “mean urinary HSD-1 ratio” value (liver HSD-1; single 1 mg dose, urine 24 to 48 hours post-dose) of the same molecule?
**A.** 0.522

**Q.** And the “mean urinary HSD-1 ratio” value (liver HSD-1; single 1 mg dose, urine 48 to 72 hours post-dose)?
**A.** 0.618

**Q.** And the “mean difference v placebo of the urinary HSD-1 ratio” value (liver HSD-1; single dose 1 mg)?
**A.** 51%

**Q.** What about the “brain HSD-1 occupancy” value (brain HSD-1; 3.3 to 25 hours) of the same molecule?
**A.** 84-90%

**Q.** And the “brain HSD-1 occupancy” value (brain HSD-1; 42 to 46 hours)?
**A.** 56-83%

**Q.** What about the Ki [1] of the same molecule?
**A.** 12.6 nM

**Q.** What about the “Whole-body fat content LSM” value (C57BL/6 male mice; 1 mg/kg QD + CORT, Day 14) of the same molecule?
**A.** 0.121^a

**Q.** And the “Whole-body muscle content LSM” value (C57BL/6 male mice; 1 mg/kg QD + CORT, Day 14)?
**A.** 0.82^a

**Q.** And the “HOMA-IR LSM” value (C57BL/6 male mice; 1 mg/kg QD + CORT, Day 15)?
**A.** 3.73ª mmol glucose/μU insulin

**Q.** What about the “Whole-body fat content LSM” value (C57BL/6 male mice; 1 mg/kg QD + CORT, Day 28) of the same molecule?
**A.** 0.142^ab

**Q.** And the “Whole-body muscle content LSM” value (C57BL/6 male mice; 1 mg/kg QD + CORT, Day 28)?
**A.** 0.77^a

**Q.** And the “HOMA-IR LSM” value (C57BL/6 male mice; 1 mg/kg QD + CORT, Day 29)?
**A.** 3.56^ab mmol glucose/μU insulin

**Q.** And the “HOMA-IR LSM” value (C57BL/6 male mice; 1 mg/kg QD + CORT, Day 35)?
**A.** 8.16^b mmol glucose/μU insulin

**Q.** What about the “Fat depot weight, Gonadal, Mean” value (C57BL/6 male mice; 1 mg/kg QD + CORT) of the same molecule?
**A.** 10.60 mg/g body weight

**Q.** What about the “Fat depot weight, Mesenteric, Mean” value (C57BL/6 male mice; 1 mg/kg QD + CORT) of the same molecule?
**A.** 6.46 mg/g body weight

**Q.** And the “Fat depot weight, Retroperitoneal, Mean” value (C57BL/6 male mice; 1 mg/kg QD + CORT)?
**A.** 3.33 mg/g body weight

**Q.** And the “Fat depot weight, Subcutaneous, Mean” value (C57BL/6 male mice; 1 mg/kg QD + CORT)?
**A.** 4.04 mg/g body weight

**Q.** And the “Muscle weight, Quadriceps, Mean” value (C57BL/6 male mice; 1 mg/kg QD + CORT)?
**A.** 3.98 mg/g body weight

**Q.** And the “Muscle weight, Tibialis anterior, Mean” value (C57BL/6 male mice; 1 mg/kg QD + CORT)?
**A.** 1.60 mg/g body weight

**Q.** And the “Whole-body fat content LSM” value (C57BL/6 male mice; 10 mg/kg BID + CORT, Day 14)?
**A.** 0.064^b

**Q.** And the “Whole-body muscle content LSM” value (C57BL/6 male mice; 10 mg/kg BID + CORT, Day 14)?
**A.** 0.89^b

**Q.** And the “HOMA-IR LSM” value (C57BL/6 male mice; 10 mg/kg BID + CORT, Day 15)?
**A.** 0.94^b mmol glucose/μU insulin

**Q.** And the “Whole-body fat content LSM” value (C57BL/6 male mice; 10 mg/kg BID + CORT, Day 28)?
**A.** 0.061^b

**Q.** What about the “Whole-body muscle content LSM” value (C57BL/6 male mice; 10 mg/kg BID + CORT, Day 28) of the same molecule?
**A.** 0.86^b

**Q.** And the “HOMA-IR LSM” value (C57BL/6 male mice; 10 mg/kg BID + CORT, Day 29)?
**A.** 0.94^b mmol glucose/μU insulin

**Q.** What about the “HOMA-IR LSM” value (C57BL/6 male mice; 10 mg/kg BID + CORT, Day 35) of the same molecule?
**A.** 2.16^b mmol glucose/μU insulin

**Q.** What about the “Fat depot weight, Gonadal, Mean” value (C57BL/6 male mice; 10 mg/kg BID + CORT) of the same molecule?
**A.** 6.02 mg/g body weight

**Q.** What about the “Fat depot weight, Mesenteric, Mean” value (C57BL/6 male mice; 10 mg/kg BID + CORT) of the same molecule?
**A.** 4.73 mg/g body weight

**Q.** And the “Fat depot weight, Retroperitoneal, Mean” value (C57BL/6 male mice; 10 mg/kg BID + CORT)?
**A.** 2.21 mg/g body weight

**Q.** And the “Fat depot weight, Subcutaneous, Mean” value (C57BL/6 male mice; 10 mg/kg BID + CORT)?
**A.** 1.95 mg/g body weight

**Q.** And the “Muscle weight, Quadriceps, Mean” value (C57BL/6 male mice; 10 mg/kg BID + CORT)?
**A.** 5.90 mg/g body weight

**Q.** And the “Muscle weight, Tibialis anterior, Mean” value (C57BL/6 male mice; 10 mg/kg BID + CORT)?
**A.** 2.36 mg/g body weight

**Q.** And the “Whole-body fat content LSM” value (C57BL/6 male mice; 10 mg/kg QD + CORT, Day 14)?
**A.** 0.061^b

**Q.** And the “Whole-body muscle content LSM” value (C57BL/6 male mice; 10 mg/kg QD + CORT, Day 14)?
**A.** 0.87^b

**Q.** What about the “HOMA-IR LSM” value (C57BL/6 male mice; 10 mg/kg QD + CORT, Day 15) of the same molecule?
**A.** 1.41^b mmol glucose/μU insulin

**Q.** And the “Whole-body fat content LSM” value (C57BL/6 male mice; 10 mg/kg QD + CORT, Day 28)?
**A.** 0.115^ab

**Q.** And the “Whole-body muscle content LSM” value (C57BL/6 male mice; 10 mg/kg QD + CORT, Day 28)?
**A.** 0.80^b

**Q.** And the “HOMA-IR LSM” value (C57BL/6 male mice; 10 mg/kg QD + CORT, Day 29)?
**A.** 1.88^ab mmol glucose/μU insulin

**Q.** And the “HOMA-IR LSM” value (C57BL/6 male mice; 10 mg/kg QD + CORT, Day 35)?
**A.** 2.28^b mmol glucose/μU insulin

**Q.** What about the “Fat depot weight, Gonadal, Mean” value (C57BL/6 male mice; 10 mg/kg QD + CORT) of the same molecule?
**A.** 8.44 mg/g body weight

**Q.** What about the “Fat depot weight, Mesenteric, Mean” value (C57BL/6 male mice; 10 mg/kg QD + CORT) of the same molecule?
**A.** 6.23 mg/g body weight

**Q.** And the “Fat depot weight, Retroperitoneal, Mean” value (C57BL/6 male mice; 10 mg/kg QD + CORT)?
**A.** 2.40 mg/g body weight

**Q.** And the “Fat depot weight, Subcutaneous, Mean” value (C57BL/6 male mice; 10 mg/kg QD + CORT)?
**A.** 3.35 mg/g body weight

**Q.** What about the “Muscle weight, Quadriceps, Mean” value (C57BL/6 male mice; 10 mg/kg QD + CORT) of the same molecule?
**A.** 5.33 mg/g body weight

**Q.** And the “Muscle weight, Tibialis anterior, Mean” value (C57BL/6 male mice; 10 mg/kg QD + CORT)?
**A.** 2.14 mg/g body weight

**Q.** What about the body weight, group Mean (C57BL/6 male mice; Baseline) of the same molecule?
**A.** 22.1 g

**Q.** What about the “food consumption, group Mean” value (C57BL/6 male mice; Day 4) of the same molecule?
**A.** 3.26

**Q.** What about the “food consumption, group Mean” value (C57BL/6 male mice; Day 8) of the same molecule?
**A.** 2.92

**Q.** And the “food consumption, group Mean” value (C57BL/6 male mice; Day 11)?
**A.** 3.09

**Q.** And the body weight, group Mean (C57BL/6 male mice; Day 15)?
**A.** 21.9 g
